For data set [1] the following is noted: standardized value used in the formula for test solutions; cited from earlier work.
Data set [2] concerns New Zealand White rabbits. Briefly: Hypoglycemic activity after subcutaneous injection in fasted rabbits (blood glucose, percent of original). It counts as in vivo, rabbit. Conditions: for Percent of Original Blood Glucose: added zinc 0 mg/ml, 0.2 U/kg s.c., 40 U/ml, n = 10 rabbits.
Method: Solutions were prepared containing various amounts of zinc (0-2.4 mg/ml) in the form of zinc chloride. Glacial acetic acid was used to solublize each of the solutions at a final pH range of pH 4-6.
New Zealand White rabbits, mostly female, all weighing 0 2.7-4 kg, 0.5-4 years of age and fasted 16 hours prior to administration of sample were used for testing.
At various times, 100 μl volumes of blood were obtained from the marginal ear veins, mixed with 900 μl volumes of anticoagulant (EDTA-sodium fluoride) and analyzed for glucose content. The glucose values were standardized to reflect percent of original blood glucose measured prior to sample injection.

Consider “human insulin: natural human insulin, reference for biopotency”, for which the “standardized value (potency per mg protein)” value in data set [1] is listed as 28.85 U/mg.

For “Des(64) HPI: split(64) proinsulin wherein Lys-64 is removed”, the “Percent of Original Blood Glucose” value in data set [2] (1 hour after injection) is listed as 63.1%; in data set [2] (2 hours after injection) it was 70.5%; in data set [2] (4 hours after injection), 90.6%; in data set [2] (6 hours after injection), 90.0%. In addition, the hypoglycemic activity result in data set [2] (result in words, animal model) is reported as “hypoglycemic activity of its own”.

Source of the values: patent US5491216A, “Tri-arginine insulins” (Eli Lilly and Company, priority 1993, dated 1996).
